# Source: patent EP2265631B1, “NOVEL ANTIMICROBIAL PEPTIDES AND THEIR APPLICATION” (Ustav Organicke Chemie a Biochemie Akademie Ved Ceske …, priority 2008, dated 2009)
# Columns and labels:
# Bacilus subtilis = experiment: Determination of antimicrobial activity (MIC, bacterial growth in LB broth); assay type: cell-based; details: minimum inhibitory concentration (MIC) per method, 37°C, 20 h, read-out: Antimicrobial activity IC50 [µM] B.s.
# Procedure: (§1) Antimicrobial activity was determined as a quantitative minimum inhibitory concentration (MIC) by observing bacterial growth in the presence of different concentrations of tested peptides. Mid-exponential phase bacteria were added to the solutions of the tested antimicrobial peptide at different concentrations (0.5 to 100 µM) in LB broth in multi-well plates. The plates were incubated at 37°C for 20 h while being continuously shaken in a Bioscreen C instrument (Finland). The absorbance was measured at 540 nm every 15 min and each peptide was tested at least 3 times in duplicate. 1.2.10^3 - 7.5.10^3 CFU of bacteria was routinely used in the experiments. Tetracycline in a concentration range of 0.1 - 50 µM was tested as a standard.
# Pseudomonnas aeruginosa = experiment: as above; assay type: cell-based; details: minimum inhibitory concentration (MIC) per method, 37°C, 20 h, read-out: Antimicrobial activity IC50 [µM] P.a.
# Procedure: as §1
# Escherichia coli = experiment: as above; assay type: cell-based; details: minimum inhibitory concentration (MIC) per method, 37°C, 20 h, read-out: Antimicrobial activity IC50 [µM] E. c.
# Procedure: as §1
# Staphylococcus aureus = experiment: as above; assay type: cell-based; details: minimum inhibitory concentration (MIC) per method, 37°C, 20 h, read-out: Antimicrobial activity IC50 [µM] S.a.
# Procedure: as §1
# bacteria = experiment: Antimicrobial effect, general statement; assay type: cell-based
# Procedure: as §1
# rat red blood cells = experiment: Determination of hemolytic activity; assay type: cell-based
# Procedure: The peptides in the concentration (1-200 µM) were incubated with rat red blood cells (5%) for 1 h at 37°C in a physiological solution at a final volume of 0.2 ml. The samples were then centrifuged for 5 min at 250 g, and the absorbance of the supernatant was determined at 540 nm. Supernatants of red blood cells suspended in physiological solution and in 0.2% TRITON X100 in physiological solution served as controls for zero hemolysis (blank) and 100% hemolysis, respectively. Table 3. Antimicrobial and hemolytic activity of melectin (I) and its synthetic analogs of formulas II/1 to II/18
# [1] = tested on: rat pheochromocytoma PC12; experiment: Cytostatic effect on cancer cells (e.g. MTT test); assay type: cell-based; details: 24-72 h incubation, 50% decrease in cell viability
# Procedure: (§2) Tumor cells in suspension or adherent cells were incubated under standard conditions in appropriate culture media for 24-72 h with the peptides in 2-40 micromolar concentration. After this time, the number of living cells was determined using routine tests, e.g. MTT test. The IC50 was determined as concentration of peptides, which caused 50% decrease in cell viability in comparison to controls (no peptide present). In preliminary tests mouse lymphocytic leukemia L1210 (CCL 219), CCRF-CEM T lymphoblastoid (human acute lymphoblastic leukemia, CCL 119), human promyelocytic leukemia HL-60 (CCL 240), human cervix carcinoma HeLa S3, rat pheochromocytoma PC12, human colon adenocarcinoma SW480 (CCL-228), and normal rat epithelial cells (IEC-6, CRL-1592) from ATCC (Manassas, VA, USA), were used. […] Table 4. Cytostatic effect of selected peptides on cancer cells
# [2] = tested on: human cervix carcinoma HeLa S3; experiment: Cytostatic effect on cancer cells (e.g. MTT test); assay type: cell-based; details: 24-72 h incubation, 50% decrease in cell viability; read-out: IC50 [µM] HeLaS3
# Procedure: as §2
# [3] = tested on: human promyelocytic leukemia HL-60; experiment: Cytostatic effect on cancer cells (e.g. MTT test); assay type: cell-based; details: 24-72 h incubation, 50% decrease in cell viability
# Procedure: as §2
# [4] = tested on: mouse lymphocytic leukemia L1210; experiment: Cytostatic effect on cancer cells (e.g. MTT test); assay type: cell-based; details: 24-72 h incubation, 50% decrease in cell viability
# Procedure: as §2
# [5] = tested on: human colon adenocarcinoma SW480; experiment: Cytostatic effect on cancer cells (e.g. MTT test); assay type: cell-based; details: 24-72 h incubation, 50% decrease in cell viability
# Procedure: as §2
# [6] = tested on: CCRF-CEM T lymphoblastoid; experiment: Cytostatic effect on cancer cells (e.g. MTT test); assay type: cell-based, human; details: 24-72 h incubation, 50% decrease in cell viability
# Procedure: as §2
# Tumor cells = experiment: Cytostatic effect on cancer cells, summary over the cell panel; assay type: cell-based; details: range over the tumor cell lines, preliminary tests
# Procedure: as §2
structure (smiles),measurement,setting,value
"CC[C@H](C)[C@H](NC(=O)[C@H](CO)NC(=O)[C@H](CC(C)C)NC(=O)[C@H](Cc1ccccc1)NC(=O)CN)C(=O)N[C@@H](CC(C)C)C(=O)N[C@@H](CCCCN)C(=O)N[C@@H](CCCCN)C(=O)N[C@H](C(=O)N[C@@H](CC(C)C)C(=O)N1CCC[C@H]1C(=O)N[C@@H](CCCCN)C(=O)N[C@H](C(=O)N[C@@H](CCSC)C(=O)N[C@@H](C)C(=O)N[C@@H](Cc1cnc[nH]1)C(=O)N[C@@H](CCSC)C(=O)N[C@@H](CCCCN)C(N)=O)C(C)C)C(C)C [Peptide I, H-Gly-Phe-Leu-Ser-Ile-Leu-Lys-Lys-Val-Leu-Pro-Lys-Val-Met-Ala-His-Met-Lys-NH2]",IC50,Bacilus subtilis,0.8 µM
same,IC50,Pseudomonnas aeruginosa,18.5 µM
same,IC50,Escherichia coli,2 µM
same,IC50,Staphylococcus aureus,6.8 µM
same,antimicrobial effect (in words),bacteria,strong antimicrobial effect
same,hemolytic activity (in words),rat red blood cells,low hemolytic activity
same,Hemolytic activity,"rat red blood cells; rat red blood cells (5%), 1 h at 37°C, peptides 1-200 µM",> 100 µM
same,IC50,[1],10 µM
same,IC50,[2],18.1 µM
same,IC50,[3],> 10 µM
same,IC50,[4],> 10 µM
same,IC50,[5],25 µM
same,IC50,[6],> 10 µM
same,IC50,Tumor cells,4 to 30 µM
